Here are results for 2 compounds from US20260272906A1, “PERIPHERALLY RESTRICTED LPAR1 ANTAGONISTS AND USES THEREOF” (CONTINEUM THERAPEUTICS, INC., priority 2024, published 2026).

The target in one data set is human LPA1 (Homo sapiens, UniProt Q92633). The experiment in a line: In vitro functional assay of lysophosphatidic acid receptor 1 activity (calcium flux, Fluo-4 NW, LPA 18:1 at EC80). It counts as cell-based. The conditions noted are these: B103 cells stably expressing human LPA1. As to the method: Primary compound plates were prepared in 100% DMSO (Sigma-Aldrich), secondary compound plates were prepared at 10× concentration in DMEM (Invitrogen), and tertiary compound plates were prepared at 3× concentration in assay buffer containing HBSS (no Ca^+2/Mg^+2, Invitrogen) and 0.1% BSA (Sigma-Aldrich). Fluo-4 NW calcium assay dye (Invitrogen) was prepared as per manufacturer's recommendations in assay buffer. B103 cells stably expressing human LPA1 (J. Chun lab, UCSD) were grown to confluency in DMEM media (Invitrogen) containing 10% FBS (ATCC), 10% Penicillin-Streptomycin (Sigma-Aldrich) and 50 μg Geneticin (Sigma-Aldrich), and detached with Accutase (Sigma-Aldrich) prior to assay. The freshly detached cells were resuspended in growth media and plated in black, clear-bottom 96-well plates (Costar) containing compound (i.e., secondary compound plate) at a density of 5×10^4 cells/well. Once plated, cells were left at room temperature for 30 minutes and then transferred to a 37° C., 5% CO2 incubator for 24 hours. […] Finally, lysophosphatidic acid (18:1) at the EC80 concentration was added and calcium flux measured using FlexStation 3 (Molecular Devices). Sigmoidal dose-response curves were generated by measuring […] over 45 sec and calculating the area under the curve. […]
human LPA1, sequence (Q92633 whole entry): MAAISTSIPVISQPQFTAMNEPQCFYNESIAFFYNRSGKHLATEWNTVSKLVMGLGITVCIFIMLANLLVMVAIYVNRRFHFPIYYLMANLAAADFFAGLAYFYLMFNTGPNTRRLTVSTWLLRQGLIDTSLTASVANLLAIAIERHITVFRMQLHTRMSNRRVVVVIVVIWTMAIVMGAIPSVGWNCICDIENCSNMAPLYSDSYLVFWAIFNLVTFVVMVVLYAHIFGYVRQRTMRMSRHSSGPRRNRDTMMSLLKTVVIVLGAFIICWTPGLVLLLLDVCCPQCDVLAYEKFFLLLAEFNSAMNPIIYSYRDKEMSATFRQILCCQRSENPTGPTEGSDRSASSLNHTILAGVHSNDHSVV
For orientation: Calcium flux is commonly read through the fluorescence of an indicator in the cells.

A short description of data set [1]: Rat PK: brain penetration after PO dosing. It counts as in vivo. The conditions noted are these: 10 mg/kg, Rat PK: Dosing PO @ 10 mpk; for Kp uu: read-out: Kp,uu (unbound brain-to-plasma partitioning).

As a reminder, the IC50 is the concentration that gives 50% inhibition. Regarding `COc1ccc(NC(=O)N(c2cnccc2C(C)C)[C@H]2CC[C@H](C(=O)O)CC2)c(OC(F)F)n1` [Example 1, trans-4-(3-(2-(difluoromethoxy)-6-methoxypyridin-3-yl)-1-(4-isopropylpyridin-3-yl)ureido)cyclohexane-1-carboxylic acid], the IC50 at human LPA1 lay within 10 to 100 nM. In data set [1], the concentration at 2 h was determined as 290 nM and the Kp uu stood at 0.05.

Regarding `COc1ccc(NC(=O)N(c2ncccc2C(C)C)[C@H]2CC[C@H](C(=O)O)CC2)c(OC(F)F)n1` [Example 2, trans-4-(3-(2-(difluoromethoxy)-6-methoxypyridin-3-yl)-1-(3-isopropylpyridin-2-yl)ureido)cyclohexane-1-carboxylic acid], at human LPA1, the IC50 was in the range of 10 to 100 nM. Besides, in data set [1], the concentration at 2 h came out at 2100 nM and the Kp uu was found to be 0.15.
